# Measurements taken from patent publication US20250320206A1, “STAT6 DEGRADERS” (Gilead Sciences, Inc., priority 2024, published 2025).
# Tests used:
# [1] = tested on: Eotaxin-3 release in human whole blood stimulated with IL-4; assay: Human Whole Blood Eotaxin-3 Assay (IL-4 stimulated eotaxin-3 release); assay type: cell-based; conditions: IL-4 stimulation, 48 h, values given for compounds with >80% Emax, geometric mean
# Description: Human Whole Blood Eotaxin-3 Assay
# This was a human whole blood assay using recombinant human Interleukin 4 to stimulate the blood and measuring the ability of the test compounds to inhibit eotaxin-3 release. The biological activities of the test compounds have been tested in human whole blood stimulated with IL-4 measuring Eotaxin-3 release. The test compounds were added to 384 well clear flat-bottom plate in a 4-fold serial dilution in triplicates using a liquid handler. Human whole blood stabilized in lithium-heparin tubes was added in a volume of 65 μL per well, resulting in a final DMSO concentration of 0.5%. The plate is incubated for 2 h at 37° C. under 5% CO2/95% air. Subsequently, 5 μL of recombinant human IL-4 (R&D Systems, cat #204-ILB) was added to the wells to a final concentration of […]. The plate was incubated for 48 h at 37° C. under 5% CO2/95% air. The plate was spun down for 10 minutes at 500×g and 20 μL supernatant was harvested and transferred to a 384 well v-bottom plate using a liquid handler and stored at −20° C. until further analysis. 10 μL supernatant was used to measure the level of Eotaxin-3 (CCL26) using Human Eotaxin-3 MSD kit from Mesocsale (Cat #K251UEK-4). The assay was performed according to the manufacture instructions.
# The data from the human whole blood eotaxin-3 assay is shown in FIG. 2 for Examples 3u208, 3u246, 3u118, 3u119, 3u120, and 3u74 (where the effect in % is plotted against the test concentration in M on a log scale).
# STAT6 = target: T1, STAT6 (Homo sapiens, UniProt P42226); assay: Stat6 Degrader Assay (HiBiT based, HeLa LgBiT clone 4.14); assay type: cell-based; conditions: HeLa LgBiT clone 4.14 HiBiT-STAT6, 4-24 h incubation; values given for compounds with >80% Emax; geometric mean; read-out: STAT6 degradation DC50
# T1 construct: These cells express endogenous STAT6; host or cells: HeLa LgBiT clone 4.14
# T1 sequence (P42226 1-847): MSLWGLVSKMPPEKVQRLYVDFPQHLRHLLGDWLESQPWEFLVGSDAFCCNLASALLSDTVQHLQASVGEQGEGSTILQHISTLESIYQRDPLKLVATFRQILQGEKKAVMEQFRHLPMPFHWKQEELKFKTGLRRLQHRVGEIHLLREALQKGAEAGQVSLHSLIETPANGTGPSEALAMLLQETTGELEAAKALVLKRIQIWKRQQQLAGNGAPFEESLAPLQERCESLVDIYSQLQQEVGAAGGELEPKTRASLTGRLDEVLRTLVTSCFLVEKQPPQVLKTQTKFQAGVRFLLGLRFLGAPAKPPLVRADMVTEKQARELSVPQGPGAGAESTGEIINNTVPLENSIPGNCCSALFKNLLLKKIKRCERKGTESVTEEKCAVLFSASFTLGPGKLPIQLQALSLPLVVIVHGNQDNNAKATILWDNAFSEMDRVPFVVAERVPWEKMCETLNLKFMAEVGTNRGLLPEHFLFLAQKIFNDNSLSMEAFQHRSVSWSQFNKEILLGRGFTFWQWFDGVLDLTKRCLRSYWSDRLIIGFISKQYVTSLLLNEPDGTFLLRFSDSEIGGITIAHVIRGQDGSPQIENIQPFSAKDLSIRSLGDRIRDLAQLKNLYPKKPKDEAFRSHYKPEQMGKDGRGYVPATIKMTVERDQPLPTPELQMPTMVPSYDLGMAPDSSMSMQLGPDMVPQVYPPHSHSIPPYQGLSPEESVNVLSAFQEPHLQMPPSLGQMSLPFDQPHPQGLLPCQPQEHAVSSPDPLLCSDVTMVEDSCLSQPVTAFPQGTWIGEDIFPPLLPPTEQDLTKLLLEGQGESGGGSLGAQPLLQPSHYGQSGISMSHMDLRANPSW
# Outline: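 Luminescence from HiBiT-STAT6 complementing stably expressed LgBiT in HeLa clone 4.14 reports remaining STAT6 protein. Cells (5000/well) exposed to compound for 4-24 h at 37° C; read 0.5 h after Nano-Glo addition. 100% degradation window set with 50 μM terfenadine; percent degradation plotted against concentration.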
EC50 [1],DC50 (STAT6),Compound
3.3 nM,–,"CNc1cc(=O)n(-c2ccnc3c2cc([C@H](C)N2CC=C(c4c(C)cc(C(=O)N5CCC(CN6CCN(c7cccc8c7n(C)c(=O)n8C7CCC(=O)NC7=O)CC6)CC5)cc4F)CC2)n3C)cc1F (stereo partly drawn) [Example 3u271, 3-(4-(4-((1-(3-fluoro-4-(1-((S)-1-(4-(5-fluoro-4-(methylamino)-2-oxopyridin-1 (2H)-yl)-1-methyl-1H-pyrrolo[2,3-b]pyridin-2-yl)ethyl)-1,2,3,6-tetrahydropyridin-4-yl)-5-methylbenzoyl)-piperidin-4-yl)methyl)piperazin-1-yl)-3-methyl-2-oxo-2,3-dihydro-1H-benzo[d]imidazol-1-yl)-piperidine-2,6-dione]"
31.8 nM,–,"CNc1ccn(-c2ccnc3c2cc([C@H](C)N2CC=C(c4c(C)cc(C(=O)N5CCC(CN6CCN(c7cc8c(cc7F)n(C7CCC(=O)NC7=O)c(=O)n8C)CC6)CC5)cc4F)CC2)n3C)c(=O)c1F (stereo partly drawn) [Example 3u273, 3-(6-fluoro-5-(4-((1-(3-fluoro-4-(1-((S)-1-(4-(3-fluoro-4-(methylamino)-2-oxopyridin-1 (2H)-yl)-1-methyl-1H-pyrrolo[2,3-b]pyridin-2-yl)ethyl)-1,2,3,6-tetrahydropyridin-4-yl)-5-methylbenzoyl)piperidin-4-yl)methyl)piperazin-1-yl)-3-methyl-2-oxo-2,3-dihydro-1H-benzo[d]imidazol-1-yl)piperidine-2,6-dione]"
6.9 nM,–,"CNc1cc(=O)n(-c2ccnc3c2cc([C@H](C)N2CC=C(c4c(C)cc(C(=O)N5CCC(CN6CCC(c7ccc8c(c7)C7(CC7)C(=O)N8C7CCC(=O)NC7=O)CC6)CC5)cc4F)CC2)n3C)cc1F (stereo partly drawn) [Example 3u282, 3-(5′-(1-((1-(3-fluoro-4-(1-((S)-1-(4-(5-fluoro-4-(methylamino)-2-oxopyridin-1 (2H)-yl)-1-methyl-1H-pyrrolo[2,3-b]pyridin-2-yl)ethyl)-1,2,3,6-tetrahydropyridin-4-yl)-5-methylbenzoyl)-piperidin-4-yl)methyl)piperidin-4-yl)-2′-oxospiro[cyclopropane-1,3′-indolin]-1′-yl)piperidine-2,6-dione]"
126 nM,–,"CNc1cc(=O)n(-c2ccnc3c2cc([C@H](C)N2CC=C(c4c(C)cc(C(=O)N5CCC(O)(CC6CCN(c7ccc8c(c7)C7(CC7)C(=O)N8C7CCC(=O)NC7=O)CC6)CC5)cc4F)CC2)n3C)cc1F (stereo partly drawn) [Example 3u283, 3-(5′-(4-((1-(3-fluoro-4-(1-((S)-1-(4-(5-fluoro-4-(methylamino)-2-oxopyridin-1 (2H)-yl)-1-methyl-1H-pyrrolo[2,3-b]pyridin-2-yl)ethyl)-1,2,3,6-tetrahydropyridin-4-yl)-5-methylbenzoyl)-4-hydroxypiperidin-4-yl)methyl)piperidin-1-yl)-2′-oxospiro[cyclopropane-1,3′-indolin]-1′-yl)piperidine-2,6-dione]"
24.9 nM,–,"CNc1cc(=O)n(-c2ccnc3c2cc([C@H](C)N2CC=C(c4c(C)cc(C(=O)N5CCC(CN6CCN(c7cc8c(cc7F)N(C7CCC(=O)NC7=O)C(=O)C87CC7)CC6)CC5)cc4F)CC2)n3C)cc1F (stereo partly drawn) [Example 3u305, 3-(6′-fluoro-5′-(4-((1-(3-fluoro-4-(1-((S)-1-(4-(5-fluoro-4-(methylamino)-2-oxopyridin-1 (2H)-yl)-1-methyl-1H-pyrrolo[2,3-b]pyridin-2-yl)ethyl)-1,2,3,6-tetrahydropyridin-4-yl)-5-methylbenzoyl)piperidin-4-yl)methyl)piperazin-1-yl)-2′-oxospiro[cyclopropane-1,3′-indolin]-1′-yl)piperidine-2,6-dione]"
194 nM,–,"CNc1cc(=O)n(-c2ccnc3c2cc([C@H](C)N2CC=C(c4c(C)cc(C(=O)N5CCC(CN6CCN(c7cc8c(cc7F)N(C7CCC(=O)NC7=O)C(=O)C8(C)C)CC6)CC5)cc4F)CC2)n3C)cc1F (stereo partly drawn) [Example 3u306, 3-(6-fluoro-5-(4-((1-(3-fluoro-4-(1-((S)-1-(4-(5-fluoro-4-(methylamino)-2-oxopyridin-1 (2H)-yl)-1-methyl-1H-pyrrolo[2,3-b]pyridin-2-yl)ethyl)-1,2,3,6-tetrahydropyridin-4-yl)-5-methylbenzoyl)piperidin-4-yl)methyl)piperazin-1-yl)-3,3-dimethyl-2-oxoindolin-1-yl)piperidine-2,6-dione]"

# Further lines, the molecule ahead of its results:
Compound,EC50 [1],DC50 (STAT6)
"CNc1ccn(-c2ccnc3c2cc([C@H](C)N2CCC(c4ccc(C(=O)N5CCC(CN6CCN(Cc7ccc8c(c7)C7(CC7)C(=O)N8C7CCC(=O)NC7=O)C[C@@H]6C)CC5)cc4)CC2)n3C)c(=O)c1 (mixture of isomers) [Example 3u5, 3-(5′-(((S)-3-methyl-4-((1-(4-(1-((S)-1-(1-methyl-4-(4-(methylamino)-2-oxopyridin-1 (2H)-yl)-1H-pyrrolo[2,3-b]pyridin-2-yl)ethyl)piperidin-4-yl)benzoyl)piperidin-4-yl)methyl)piperazin-1-yl)-methyl)-2′-oxospiro[cyclopropane-1,3′-indolin]-1′-yl)piperidine-2,6-dione]",0.8 nM,1 nM
"CNc1cc(=O)n(-c2ccnc3c2cc([C@H](C)N2CC=C(c4c(F)cc(C(=O)N5CCC(CN6CCN(Cc7ccc8c(c7)n(C)c(=O)n8C7CCC(=O)NC7=O)CC6)CC5)cc4F)CC2)n3C)cc1F (mixture of isomers) [Example 3u51, 3-(5-((4-((1-(3,5-difluoro-4-(1-((S)-1-(4-(5-fluoro-4-(methylamino)-2-oxopyridin-1 (2H)-yl)-1-methyl-1H-pyrrolo[2,3-b]pyridin-2-yl)ethyl)-1,2,3,6-tetrahydropyridin-4-yl)benzoyl)piperidin-4-yl)methyl)piperazin-1-yl)methyl)-3-methyl-2-oxo-2,3-dihydro-1H-benzo[d]imidazol-1-yl)piperidine-2,6-dione]",1.9 nM,1.8 nM
"CNc1ccn(-c2ccnc3c2cc([C@H](C)N2CC=C(c4c(C)cc(C(=O)N5CCC(CN6CCN(Cc7ccc8c(c7)C7(CC7)C(=O)N8C7CCC(=O)NC7=O)C[C@@H]6C)CC5)cc4F)CC2)n3C)c(=O)c1 (mixture of isomers) [Example 3u190, 3-(5′-(((S)-4-((1-(3-fluoro-5-methyl-4-(1-((S)-1-(1-methyl-4-(4-(methylamino)-2-oxopyridin-1 (2H)-yl)-1H-pyrrolo[2,3-b]pyridin-2-yl)ethyl)-1,2,3,6-tetrahydropyridin-4-yl)benzoyl)piperidin-4-yl)methyl)-3-methylpiperazin-1-yl)methyl)-2′-oxospiro[cyclopropane-1,3′-indolin]-1′-yl)piperidine-2,6-dione]",0.9 nM,0.5 nM
"CNc1ccn(-c2ccnc3c2cc([C@H](C)N2CCC(c4ccc(C(=O)N5CCC(CN6CCN(Cc7ccc8c(c7)C7(CC7)C(=O)N8[C@H]7CCC(=O)NC7=O)C[C@@H]6C)CC5)cc4)CC2)n3C)c(=O)c1 (single isomer, unassigned) [Example 3u6]",19.3 nM,0.7 nM
"CNc1ccn(-c2ccnc3c2cc(CN2CCC(c4c(F)cc(C(=O)N5CCC(CN6CCN(c7cc8c(cc7F)n(C7CCC(=O)NC7=O)c(=O)n8C)CC6)CC5)cc4F)CC2)n3C)c(=O)c1 (stereo not drawn) [Example 3u270, 3-(5-(4-((1-(3,5-difluoro-4-(1-((1-methyl-4-(4-(methylamino)-2-oxopyridin-1 (2H)-yl)-1H-pyrrolo[2,3-b]pyridin-2-yl)methyl)piperidin-4-yl)benzoyl)piperidin-4-yl)methyl)piperazin-1-yl)-6-fluoro-3-methyl-2-oxo-2,3-dihydro-1H-benzo[d]imidazol-1-yl)piperidine-2,6-dione]",26.8 nM,–
